The source of these data is patent publication US20140135272A1, “NOVEL ZINC FINGER-LIKE PEPTIDE COMPOSITIONS AS POTENT AGENTS IN CANCER PREVENTION AND TREATMENT” (priority 2011, published 2014).

Holding throughout (format): in vivo, nude mice
The test system of experiment [1] is BCC cells. Put plainly: Example 2: peptide pre-injection plus boost injection, BCC cell inoculation, tumor volumes. The settings on record: peptide 2 mM, 100 μl i.v. per week for 3 weeks before BCC inoculation; boost per week for 3 weeks 2 months later; vs H2O control. As to the method: (§1) In the following examples, 8-week nude mice were used as host subjects to perform in vivo experiments. The nude mice were placed in room temperature and suitable humidity, and supplied with sterile water and standard food for 2 consecutive weeks before performing experiments. Then, the nude mice were injected with zinc finger-like peptide and tumor cells. The detailed processes for the experiments are described as follows.
(§2) First, manually synthesized zinc finger-like peptide (Genemed Synthesis Inc., San Antonio, Tex., USA) was resuspended in degassed purified water to obtain 1-5 mM of zinc finger-like peptide solution (100 μl). Herein, the solution for suspending the zinc finger-like peptide is not particularly limited. Preferably, the zinc finger-like peptide is resuspended in degassed purified water, in order to prevent the self-polymerization of the zinc finger-like peptide and loss its ability to inhibit tumor cell growth.
(§3) In the present experimental group, zinc finger-like peptide with sequence shown in SEQ ID NO: 1 was injected into nude mice.
Nude mice were injected with an intravenous injection of peptide (2 mM, 100 μl PBS) via tail veins per week for 3 consecutive weeks, followed by inoculating BCC cells (2 million cells/100 μl PBS) at both the right and left flanks. 2 months later, boost injection of peptide was carried out per week for 3 consecutive weeks. […]

The subject of experiment [2] is malignant melanoma B16F10. Put plainly: Example 3: peptide pre-injection, then malignant melanoma B16F10 inoculation, tumor volumes. The settings on record: peptide 2 mM, 100 μl sterile water i.v. per week for 3 weeks before B16F10 inoculation; vs H2O control. As to the method:
as §1, §2
Herein, zinc finger-like peptide with sequence shown in SEQ ID NO: 1 is injected into nude mice.
With this experimental group, nude mice received an intravenous injection of peptide (2 mM, 100 μl sterile water) via tail veins per week for 3 consecutive weeks, followed by inoculation of malignant melanoma B16F10 (2 million cells/100 μl PBS) at both the right and left flanks. The tumor volumes (mm^3) were observed daily during the whole experiment. […]

For experiment [3], the system named is malignant melanoma B 16F10. Kind of experiment: Example 4: peptide variants pre-injected, then malignant melanoma B16F10 inoculation, tumor volumes and death. The conditions noted are these: peptide 2 mM, 100 μl i.v. per week for 2 weeks before B16F10 inoculation. The method, then: as §1, §2
Nude mice received an intravenous injection of peptide (2 mM, 100 μl) via tail veins per week for 2 consecutive weeks, followed by inoculating malignant melanoma B 16F10 (2 million cells/100 μl PBS) at both the right and left flanks. The tumor volumes (mm^3) were observed daily during the whole experiment.
as §3
In the present experimental group, zinc finger-like peptide with sequence shown in SEQ ID NO: 1, in which the fifth amino acid, serine was phosphorylated, and injected into nude mice.
In the present experimental group, zinc finger-like peptide with sequence shown in SEQ ID NO: 6 was injected into nude mice.
In the present experimental group, zinc finger-like peptide with sequence shown in SEQ ID NO: 6, in which the fourth amino acid serine was phosphorylated, and injected nude mice.
In the control group, H2O (100 μl) was injected into nude mice.

The subject of experiment [4] is breast carcinoma MDA-MB-468. Kind of experiment: Example 7: peptide pre-injection, then breast carcinoma MDA-MB-468 inoculation, tumor volumes. The conditions noted are these: peptide 3 mM, 100 μl i.v. per week for 3 weeks before MDA-MB-468 inoculation; vs H2O control. The method, then: as §1, §2, §3
Nude mice were injected with an intravenous injection of peptide (3 mM, 100 μl) via tail veins per week for 3 consecutive weeks, followed by inoculating breast carcinoma MDA-MB-468 (2 million cells/100 μl medium) at both the right and left flanks. The tumor volumes (mm^3) were observed daily during the whole experiment. […]

Experiment [5] deals with malignant prostate cancer DU145 cells. Kind of experiment: Example 9: peptide pre-injection, malignant prostate cancer DU145 cells inoculated three months later, tumor volumes. The conditions noted are these: peptide 2 mM, 100 μl i.v. per week for 3 weeks, vs H2O control. The method, then: as §1, §2, §3
Nude mice were injected with an intravenous injection of peptide (2 mM, 100 μl) via tail veins per week for 3 consecutive weeks, followed by inoculating malignant prostate cancer DU145 cells (2 million cells/100 μl medium) at both the right and left flanks three months later. […]

The subject of experiment [6] is prostatic epithelial cells PZ-HPV-7. Put plainly: Example 10: peptide pre-injection, then prostatic epithelial cells PZ-HPV-7 inoculation, tumor volumes. The settings on record: peptide 2 mM, 100 μl i.v. per week for 3 weeks; PZ-HPV-7 inoculated on the 20th and 90th day; vs H2O control. The method, then:
as §1, §2, §3
Nude mice were injected with an intravenous injection of peptide (2 mM, 100 μl) via tail veins per week for 3 consecutive weeks, followed by inoculating prostatic epithelial cells PZ-HPV-7 (2 million cells/100 μl medium) at both the right and left flanks on the 20th day and the 90th day. […]

For experiment [7], the system named is malignant glioma U87-MG cells. Put plainly: Example 11: peptide pre-injection, malignant glioma U87-MG cells inoculated 1 month later, tumor volumes. The conditions noted are these: for growth and proliferation of tumor cells (tumor volumes): 100 μl i.v. per week for 3 weeks, U87-MG inoculated 1 month later, vs H2O control. As to the method: as §1, §2
The process of the present control group was the same as that of the experimental group, except that the zinc finger-like peptide of the experimental group was substituted with H2O (100 μl) in the present control group. The result is shown in FIG. 11A, which is a curve representing the tumor volumes of mice.
as §3
Nude mice were injected with an intravenous injection of peptide (2 mM, 100 μl) via tail veins per week for 3 consecutive weeks, followed by inoculating malignant glioma U87-MG cells (2 million cells/100 μl medium) at both the right and left flanks 1 month later. The tumor volumes (mm^3) were observed daily during the whole experiment. The result is shown in FIG. 11B, which is a curve representing the tumor volumes of mice.
The process of the present control group was the same as that of the experimental group 1, except that the concentration of the zinc finger-like peptide is 4 mM. The result is shown in FIG. 11C, which is a curve representing the tumor volumes of mice.

On to “RRSSSCK [SEQ ID NO: 1, zinc finger-like peptide, manually synthesized]”, for which the “tumor growth (tumor volumes)” value in experiment [1] is “can prevent and inhibit the growth of cancer cell”; in experiment [2], “can inhibit the growth of skin melanoma on nude mice”. Moreover, the “skin cancer completely cured after” value in experiment [3] is recorded as 115 days. Further, the “tumor growth / activity on skin cancer treatment” value in experiment [3] (vs H2O control) is recorded as “can effectively inhibit the growth of tumor cells”. Also, the “growth and proliferation of tumor cells (tumor volumes)” value in experiment [4] is “the growth and proliferation of tumor cells were not observed”; in experiment [5] it was “the growth and proliferation of tumor cells were not observed”; in experiment [6], “the growth and proliferation of tumor cells were not observed”; in experiment [7] (peptide 2 mM) it was “slower than that observed in the control group”; in experiment [7] (peptide 4 mM) it was “slower than that observed in the control group”. Moreover, the “concentration dependence of suppression on tumor cell growth” value in experiment [7] (2 mM vs 4 mM peptide, U87-MG) is given as “the suppression on tumor cell growth was getting significant as the concentration of the zinc finger-like peptide increased”.
